In US20240109900A1, “AZABICYCLIC SHP2 INHIBITORS” (IRBM S.P.A., priority 2021, published 2024):
Read-outs that look alike come from different tables or passages of the source.

Experiments:
[1] = target: SHP-2 enzyme (Met1-Leu525) (Homo sapiens (Human), UniProt Q06124); test: SHP2 inhibition enzymatic assay; assay type: biochemical; details: read-out: SHP2wt-IC50
Outline: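 SHP-2 (Met1-Leu525), 0.5 nM, activated with 500 nM IRS1 bis-phosphopeptide, preincubated 30 min with compounds in HEPES pH 7.2 buffer with 5 mM DTT. 75 μM DiFMUP added for 30 min at room temperature, stopped with bpV; fluorescence read. IC50 from four-parameter logistic fit of % inhibition.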

[2] = test system: ERK phosphorylation in KYSE-520 cells; test: Phospho-ERK cellular assay; assay type: cell-based; details: KYSE-520 cells, 2 h at 37° C., phospho-ERK1/2 (Thr202/Tyr204) TR-FRET, read-out: PERK IC50
Outline: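 TR-FRET read-out of ERK1/2 Thr202/Tyr204 phosphorylation was taken after overnight antibody incubation at room temperature. Before that, KYSE-520 cells were treated 2 h at 37 °C with compound dilutions and lysed 30 min. Percent inhibition relative to vehicle and cell-free wells was fitted four-parametrically to give IC50.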

[3] = 0.5 nM SHP-2 activated by 500 nM IRS1 peptide, 75 μM DiFMUP substrate

SHP-2 enzyme (Met1-Leu525), sequence (Q06124 1-525): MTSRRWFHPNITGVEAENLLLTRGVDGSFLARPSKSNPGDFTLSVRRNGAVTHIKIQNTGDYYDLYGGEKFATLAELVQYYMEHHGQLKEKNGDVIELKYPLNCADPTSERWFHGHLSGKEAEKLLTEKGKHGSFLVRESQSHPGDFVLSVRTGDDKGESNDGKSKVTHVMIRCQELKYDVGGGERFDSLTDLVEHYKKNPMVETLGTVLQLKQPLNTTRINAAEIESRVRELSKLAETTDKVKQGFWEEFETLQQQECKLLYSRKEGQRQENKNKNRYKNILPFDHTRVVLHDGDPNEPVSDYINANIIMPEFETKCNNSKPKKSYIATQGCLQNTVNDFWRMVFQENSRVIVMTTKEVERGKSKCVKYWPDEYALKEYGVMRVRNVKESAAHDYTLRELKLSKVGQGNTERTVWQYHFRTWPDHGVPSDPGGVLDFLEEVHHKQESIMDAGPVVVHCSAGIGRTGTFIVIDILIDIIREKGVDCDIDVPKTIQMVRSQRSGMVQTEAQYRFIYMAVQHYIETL

SMILES	IC50 [1, 3] [nM]	IC50 ([2]; Homo sapiens, KYSE-520, 2 h) [nM]	IC50 [2] [nM]	IC50 [1] [nM]	IC50 ([2]; Homo sapiens) [nM]
Cc1c(-c2n[nH]c3nc(N4CC[C@@H]5[C@H](C4)[C@@]5(CN)c4ccccc4Cl)cnc23)ccc2nn(C)cc12 [Example 180, ((1S,6R,7R)-7-(2-chlorophenyl)-3-(3-(2,4-dimethyl-2H-indazol-5-yl)-1H-pyrazolo[3,4-b]pyrazin-6-yl)-3-azabicyclo[4.1.0]heptan-7-yl)methanamine]	< 500	< 1000			
COc1ccc(-c2n[nH]c3nc(N4CC[C@@H]5[C@H](C4)[C@@]5(CN)c4ccccc4F)cnc23)nc1N [Example 214, 6-(6-((1S,6R,7R)-7-(aminomethyl)-7-(2-fluorophenyl)-3-azabicyclo[4.1.0]heptan-3-yl)-1H-pyrazolo[3,4-b]pyrazin-3-yl)-3-methoxypyridin-2-amine]	< 500	> 5000			
NC[C@]1(c2ccccc2F)[C@@H]2CCN(c3cnc4c(-c5ccn6ncnc6c5)n[nH]c4n3)C[C@@H]21 [Example 333, ((1S,6R,7R)-3-(3-([1,2,4]triazolo[1,5-a]pyridin-7-yl)-1H-pyrazolo[3,4-b]pyrazin-6-yl)-7-(2-fluorophenyl)-3-azabicyclo[4.1.0]heptan-7-yl)methanamine]	< 500	< 1000			
NC[C@]1(c2ccccc2F)[C@@H]2CCN(c3cnc4c(-c5ccc6[nH]c(=O)[nH]c6c5Cl)n[nH]c4n3)C[C@@H]21 [Example 302]	< 500		< 1000		
Cn1cc2c(Cl)c(-c3n[nH]c4nc(N5CC[C@@H]6[C@H](C5)[C@@]6(CN)c5c(F)cccc5F)cnc34)ccc2n1 [Example 117, ((1S,6R,7R)-3-(3-(4-chloro-2-methyl-2H-indazol-5-yl)-1H-pyrazolo[3,4-b]pyrazin-6-yl)-7-(2,6-difluorophenyl)-3-azabicyclo[4.1.0]heptan-7-yl)methanamine]	< 500	< 1000			
COc1ccc(-c2n[nH]c3nc(N4CC[C@@H]5[C@H](C4)[C@@]5(CN)c4ccccc4F)cnc23)c2ccc(C)nc12 [Example 201, ((1S,6R,7R)-7-(2-fluorophenyl)-3-(3-(8-methoxy-2-methylquinolin-5-yl)-1H-pyrazolo[3,4-b]pyrazin-6-yl)-3-azabicyclo[4.1.0]heptan-7-yl)methanamine]	< 500	< 1000			
Cc1csc(C2(CN)C3CCN(c4cnc5c(Sc6ccnc(N)c6Cl)n[nH]c5n4)CC32)n1 (stereo not shown) [Example 93, 4-((6-(7-(aminomethyl)-7-(4-methylthiazol-2-yl)-3-azabicyclo[4.1.0]heptan-3-yl)-1H-pyrazolo[3,4-b]pyrazin-3-yl)thio)-3-chloropyridin-2-amine]	< 500	< 1000			
Cc1csc(C2(CN)C3CCN(c4ncc(Sc5ccnc(N)c5Cl)c5nccn45)CC32)n1 (stereo not shown) [Example 76, 4-((5-(7-(aminomethyl)-7-(4-methylthiazol-2-yl)-3-azabicyclo[4.1.0]heptan-3-yl)imidazo[1,2-c]pyrimidin-8-yl)thio)-3-chloropyridin-2-amine]				< 500	> 5000
NC[C@]1(c2ccccc2F)[C@@H]2CCN(c3cnc4c(-c5cccc6nccn56)n[nH]c4n3)C[C@@H]21 [Example 143, ((1S,6R,7R)-7-(2-fluorophenyl)-3-(3-(imidazo[1,2-a]pyridin-5-yl)-1H-pyrazolo[3,4-b]pyrazin-6-yl)-3-azabicyclo[4.1.0]heptan-7-yl)methanamine]	< 500	< 1000			
Cc1cc(C2(CN)C3CCN(c4cnc5c(-c6cccc7nn(C)cc67)n[nH]c5n4)CC32)no1 (stereo not shown) [Example 26, (3-(3-(2-methyl-2H-indazol-4-yl)-1H-pyrazolo[3,4-b]pyrazin-6-yl)-7-(5-methylisoxazol-3-yl)-3-azabicyclo[4.1.0]heptan-7-yl)methanamine]	< 500	< 1000			
NC[C@]1(c2ccccc2F)[C@@H]2CCN(c3cnc4c(-c5ccc6ncccc6c5)n[nH]c4n3)C[C@@H]21 [Example 141, ((1S,6R,7R)-7-(2-fluorophenyl)-3-(3-(quinolin-6-yl)-1H-pyrazolo[3,4-b]pyrazin-6-yl)-3-azabicyclo[4.1.0]heptan-7-yl)methanamine]	< 500	< 1000			
CC(C)(O)c1ccc(-c2n[nH]c3nc(N4CC[C@@H]5[C@H](C4)[C@@]5(CN)c4ccccc4F)cnc23)c2cccnc12 [Example 137, 2-(5-(6-((1S,6R,7R)-7-(aminomethyl)-7-(2-fluorophenyl)-3-azabicyclo[4.1.0]heptan-3-yl)-1H-pyrazolo[3,4-b]pyrazin-3-yl)quinolin-8-yl)propan-2-ol]	< 500	< 1000			
Cc1cc([C@@]2(CN)[C@@H]3CCN(c4cnc5c(-c6cccn7nccc67)n[nH]c5n4)C[C@@H]32)no1 [Example 129, ((1S,6R,7S)-7-(5-methylisoxazol-3-yl)-3-(3-(pyrazolo[1,5-a]pyridin-4-yl)-1H-pyrazolo[3,4-b]pyrazin-6-yl)-3-azabicyclo[4.1.0]heptan-7-yl)methanamine]	< 500	< 1000			
NC[C@]1(c2ccccc2F)[C@@H]2CCN(c3cnc4c(-c5ccncc5Cl)n[nH]c4n3)C[C@@H]21 [Example 176, ((1S,6R,7R)-3-(3-(3-chloropyridin-4-yl)-1H-pyrazolo[3,4-b]pyrazin-6-yl)-7-(2-fluorophenyl)-3-azabicyclo[4.1.0]heptan-7-yl)methanamine]	< 500	< 1000			
Cn1c(=O)[nH]c2cc(-c3n[nH]c4nc(N5CC[C@@H]6[C@H](C5)[C@@]6(CN)c5ccccc5F)cnc34)ccc21 [Example 289, 5-(6-((1S,6R,7R)-7-(aminomethyl)-7-(2-fluorophenyl)-3-azabicyclo[4.1.0]heptan-3-yl)-1H-pyrazolo[3,4-b]pyrazin-3-yl)-1-methyl-1,3-dihydro-2H-benzo[d]imidazol-2-one]	< 500	< 1000			

Further lines, with some results ahead:

IC50 [1, 3] [nM]	IC50 ([2]; Homo sapiens, KYSE-520, 2 h) [nM]	IC50 [2] [nM]	SMILES	IC50 [1] [nM]	IC50 ([2]; Homo sapiens) [nM]
< 500	< 1000		Cc1csc([C@@]2(CN)[C@@H]3CCN(c4cnc5c(-c6ccc7nn(C)c(Cl)c7c6Cl)n[nH]c5n4)C[C@@H]32)n1 [Example 445, ((1S,6R,7S)-3-(3-(3,4-dichloro-2-methyl-2H-indazol-5-yl)-1H-pyrazolo[3,4-b]pyrazin-6-yl)-7-(4-methylthiazol-2-yl)-3-azabicyclo[4.1.0]heptan-7-yl)methanamine]		
< 500	< 1000		NC[C@]1(c2ccccc2)[C@@H]2CN(c3cnc4c(-c5ccc(F)c6ncccc56)n[nH]c4n3)C[C@@H]21 [Example 510, ((1R,5S,6s)-3-(3-(8-fluoroquinolin-5-yl)-1H-pyrazolo[3,4-b]pyrazin-6-yl)-6-phenyl-3-azabicyclo[3.1.0]hexan-6-yl)methanamine]		
< 500	< 1000		Cc1csc([C@@]2(CN)[C@@H]3CN(c4cnc5nc(Sc6ccnc(-n7cccn7)c6Cl)ccc5n4)C[C@@H]32)n1 [Example 515, ((1R,5S,6r)-3-(6-((3-chloro-2-(1H-pyrazol-1-yl)pyridin-4-yl)thio)pyrido[2,3-b]pyrazin-2-yl)-6-(4-methylthiazol-2-yl)-3-azabicyclo[3.1.0]hexan-6-yl)methanamine]		
> 3000	< 1000		CC(=O)NC[C@]1(c2ccccc2F)[C@@H]2CCN(c3cnc4c(-c5ccc6nn(C)cc6c5)n[nH]c4n3)C[C@@H]21 [Example 383, N-(((1S,6R,7R)-7-(2-fluorophenyl)-3-(3-(2-methyl-2H-indazol-5-yl)-1H-pyrazolo[3,4-b]pyrazin-6-yl)-3-azabicyclo[4.1.0]heptan-7-yl)methyl)acetamide]		
< 500	< 1000		NC[C@]1(c2ccccc2F)[C@@H]2CCN(c3cnc4c(-c5ccnc(F)c5Cl)n[nH]c4n3)C[C@@H]21 [Example 509, ((1S,6R,7R)-3-(3-(3-chloro-2-fluoropyridin-4-yl)-1H-pyrazolo[3,4-b]pyrazin-6-yl)-7-(2-fluorophenyl)-3-azabicyclo[4.1.0]heptan-7-yl)methanamine]		
< 500	< 1000		NC[C@]1(c2ccccc2F)[C@@H]2CCN(c3cnc4c(-c5ccc6nn(C(F)F)cc6c5Cl)n[nH]c4n3)C[C@@H]21 [Example 335, ((1S,6R,7R)-3-(3-(4-chloro-2-(difluoromethyl)-2H-indazol-5-yl)-1H-pyrazolo[3,4-b]pyrazin-6-yl)-7-(2-fluorophenyl)-3-azabicyclo[4.1.0]heptan-7-yl)methanamine]		
< 500	< 1000		Cn1c(N2CC[C@@H]3[C@H](C2)[C@@]3(CN)c2ccccc2F)nc2[nH]cc(-c3ccc4c(=O)[nH]ccc4c3F)c2c1=O [Example 380, 6-(2-((1S,6R,7R)-7-(aminomethyl)-7-(2-fluorophenyl)-3-azabicyclo[4.1.0]heptan-3-yl)-3-methyl-4-oxo-4,7-dihydro-3H-pyrrolo[2,3-d]pyrimidin-5-yl)-5-fluoroisoquinolin-1(2H)-one]		
< 500	< 1000		Cn1cc2c(Cl)c(Sc3cnc(N4CC[C@@H]5[C@H](C4)[C@@]5(CN)c4ccccc4F)cn3)ccc2n1 [Example 427, ((1S,6R,7R)-3-(5-((4-chloro-2-methyl-2H-indazol-5-yl)thio)pyrazin-2-yl)-7-(2-fluorophenyl)-3-azabicyclo[4.1.0]heptan-7-yl)methanamine]		
